Patent publication US7211577B2, “Water-soluble phenylpyridazine derivative and medicine containing the same” (Kowa Co., Ltd., priority 2003, dated 2007)

Assay: not given
Settings: not given

SMILES | melting point
CC(C)Cn1nc(-c2ccc(F)c(F)c2)cc(CN(C)C)c1=O.Cl | 226.5 to 227.7 °C
Cc1cc(-c2cc(CN3CCNCC3)c(=O)n(CC=Cc3ccc(Cl)cc3)n2)ccc1F.Cl.Cl | 186.7 to 197 °C (dec.)
Cc1cc(-c2cc(CN(C)C)c(=O)n(CC=Cc3ccc(Cl)cc3)n2)ccc1F.Cl | 201.3 to 201.9 °C
CN1CCN(Cc2cc(-c3ccc([S+](C)[O-])cc3)nn(CC3CC3)c2=O)CC1.Cl.Cl (centres unmarked) | 80 °C (dec.)
CC(C)Cn1nc(-c2ccc(S(C)(=O)=O)cc2)cc(CN2CCN(C)CC2)c1=O.Cl.Cl | 224.5 to 228 °C
CC(C)Cn1nc(-c2ccc(S(C)(=O)=O)cc2)cc(CN(C)C)c1=O.Cl | 221.4 to 223.3 °C
Cc1cc(-c2cc(CN)c(=O)n(Cc3ccccc3Cl)n2)ccc1F.Cl | 201.9 to 206.4 °C
COc1ccc(-c2cc(CN3CCN(C)CC3)c(=O)n(CC(C)C)n2)cc1Cl.Cl.Cl | 235.8 to 236.7 °C
Cc1ccc(-c2cc(CN(C)C)c(=O)n(CC(C)C)n2)cc1F.Cl [Example 8, 4-dimethylaminomethyl-6-(3-fluoro-4-methylphenyl)-2-isobutyl-2H-pyridazin-3-one hydrochloride] | 246.5 to 248.5 °C
CNCc1cc(-c2ccc(OC)c(F)c2)nn(CC2CC2)c1=O [Example 9, 2-cyclopropylmethyl-6-(3-fluoro-4-methoxyphenyl)-4-methylaminomethyl-2H-pyridazin-3-one] | 169.1 to 170.7 °C
COc1ccc(-c2cc(CN3CCNCC3)c(=O)n(CC3CC3)n2)cc1F [Example 20, 2-cyclopropylmethyl-6-(3-fluoro-4-methoxyphenyl)-4-(1-piperazinyl)methyl-2H-pyridazin-3-one] | 111.5 to 118 °C
Cc1ccc(-c2cc(CN)c(=O)n(CC(C)C)n2)cc1 [Example 50, 4-aminomethyl-2-isobutyl-6-(4-methylphenyl)-2H-pyridazin-3-one] | 74.9 to 77.9 °C
Cc1ccc(-c2cc(CNC(CO)CO)c(=O)n(CC(C)C)n2)cc1 [Example 52, 4-(1,3-dihydroxypropan-2-yl)aminomethyl-2-isobutyl-6-(4-methylphenyl)-2H-pyridazin-3-one] | 134.1 to 135.2 °C
CSc1ccc(-c2cc(CN(C)C)c(=O)n(CC(C)C)n2)cc1.Cl [Example 161, 4-dimethylaminomethyl-2-isobutyl-6-[4-(methylthio)phenyl]-2H-pyridazin-3-one hydrochloride] | 216.8 to 218.4 °C
C#CCNCc1cc(-c2ccc(SC)cc2)nn(CC(C)C)c1=O.Cl [Example 163, 2-isobutyl-6-[4-(methylthio)phenyl]-4-propargylaminomethyl-2H-pyridazin-3-one hydrochloride] | 197.5 to 198.4 °C
COc1ccc(-c2cc(CN3CCN(C)CC3)c(=O)n(Cc3ccc(F)cc3)n2)cc1F [Example 189, 2-(4-fluorobenzyl)-6-(3-fluoro-4-methoxyphenyl)-4-(4-methyl-1-piperazinyl)methyl-2H-pyridazin-3-one] | 112 to 113 °C

SMILES | melting point
COc1ccc(-c2cc(CN(C)C)c(=O)n(Cc3ccc(F)cc3)n2)cc1F [Example 190, 4-dimethylaminomethyl-2-(4-fluorobenzyl)-6-(3-fluoro-4-methoxyphenyl)-2H-pyridazin-3-one] | 127 to 129 °C
COc1ccc(-c2cc(CN3CCNCC3)c(=O)n(Cc3ccc(F)cc3)n2)cc1F [Example 192, 2-(4-fluorobenzyl)-6-(3-fluoro-4-methoxyphenyl)-4-(1-piperazinyl)methyl-2H-pyridazin-3-one] | 142 to 143 °C
COc1ccc(-c2cc(CN)c(=O)n(Cc3ccc(F)cc3)n2)cc1F [Example 194, 4-aminomethyl-2-(4-fluorobenzyl)-6-(3-fluoro-4-methoxyphenyl)-2H-pyridazin-3-one] | 145 to 149 °C
COc1ccc(-c2cc(CN(C)C)c(=O)n(CCCc3ccc(F)cc3)n2)cc1F [Example 197, 4-dimethylaminomethyl-6-(3-fluoro-4-methoxyphenyl)-2-[3-(4-fluorophenyl)propyl]-2H-pyridazin-3-one] | 97 to 100 °C
COc1ccc(-c2cc(CN)c(=O)n(CCCc3ccc(F)cc3)n2)cc1F [Example 200, 4-aminomethyl-6-(3-fluoro-4-methoxyphenyl)-2-[3-(4-fluorophenyl)propyl]-2H-pyridazin-3-one] | 82 to 84 °C
COc1ccc(-c2cc(CN(C)C)c(=O)n(Cc3ccc(Cl)cc3)n2)cc1F [Example 203, 2-(4-chlorobenzyl)-4-dimethylaminomethyl-6-(3-fluoro-4-methoxyphenyl)-2H-pyridazin-3-one] | 95.3 to 96.7 °C
COc1ccc(-c2cc(CN)c(=O)n(Cc3ccc(Cl)cc3)n2)cc1F [Example 205, 4-aminomethyl-2-(4-chlorobenzyl)-6-(3-fluoro-4-methoxyphenyl)-2H-pyridazin-3-one] | 128.5 to 131.4 °C
COc1ccc(-c2cc(CN3CCN(C)CC3)c(=O)n(Cc3ccc(F)c(F)c3)n2)cc1F [Example 207, 2-(3,4-difluorobenzyl)-6-(3-fluoro-4-methoxyphenyl)-4-(4-methyl-1-piperazinyl)methyl-2H-pyridazin-3-one] | 135.4 to 136 °C
COc1ccc(-c2cc(CN(C)C)c(=O)n(Cc3ccc(F)c(F)c3)n2)cc1F [Example 208, 2-(3,4-difluorobenzyl)-4-dimethylaminomethyl-6-(3-fluoro-4-methoxyphenyl)-2H-pyridazin-3-one] | 129.9 to 130.4 °C
COc1ccc(-c2cc(CN3CCN(C)CC3)c(=O)n(CC=Cc3ccc(Cl)cc3)n2)cc1F [Example 209, 2-(4-chlorocinnamyl)-6-(3-fluoro-4-methoxyphenyl)-4-(4-methyl-1-piperazinyl)methyl-2H-pyridazin-3-one] | 123.9 to 125.5 °C
Cc1cc(-c2cc(CN3CCN(C)CC3)c(=O)n(Cc3ccc(Cl)cc3)n2)ccc1F [Example 222, 2-(4-chlorobenzyl)-6-(4-fluoro-3-methylphenyl)-4-(4-methyl-1-piperazinyl)methyl-2H-pyridazin-3-one] | 133.3 to 133.8 °C
Cc1cc(-c2cc(CN3CCN(C)CC3)c(=O)n(Cc3ccccc3Cl)n2)ccc1F [Example 224, 2-(2-chlorobenzyl)-6-(4-fluoro-3-methylphenyl)-4-(4-methyl-1-piperazinyl)methyl-2H-pyridazin-3-one] | 149.7 to 150.9 °C
Cc1cc(-c2cc(CCCN)c(=O)n(Cc3ccccc3Cl)n2)ccc1F [Example 227, 4-(3-aminopropyl)-2-(2-chlorobenzyl)-6-(4-fluoro-3-methylphenyl)-2H-pyridazin-3-one] | 80 to 85 °C
Cc1cc(-c2cc(CN)c(=O)n(Cc3ccccc3Cl)n2)ccc1F [Example 237, 4-aminomethyl-2-(2-chlorobenzyl)-6-(4-fluoro-3-methylphenyl)-2H-pyridazin-3-one] | 97.6 to 102.2 °C
COc1ccc(-c2cc(CCCN3CCN(C)CC3)c(=O)n(Cc3ccc(F)cc3)n2)cc1F [Example 239, 2-(4-fluorobenzyl)-6-(3-fluoro-4-methoxyphenyl)-4-[3-(4-methyl-1-piperazinyl)propyl]-2H-pyridazin-3-one] | 108 to 109 °C

Assay: Water solubility test
Format: physicochemical
Settings: purified water, from amount of water required for dissolution
Protocol: Experiment 2 (Water Solubility Test) Testing Method
Each sample compound was weighed in the amount shown in Table 3, to which purified water was added in 0.05 mL aliquots. The solubility (%) of the compound was determined based on the amount of water required for its dissolution.

SMILES | Solubility (%)
COc1ccc(-c2cc(CN3CCN(Cc4ccccc4)CC3)c(=O)n(CC3CC3)n2)cc1F.Cl.Cl [Example 18, 4-(4-benzyl-1-piperazinyl)methyl-2-cyclopropylmethyl-6-(3-fluoro-4-methoxyphenyl)-2H-pyridazin-3-one dihydrochloride] | 1
COc1ccc(-c2cc(CN3CCNCC3)c(=O)n(CC3CC3)n2)cc1F.Cl.Cl [Example 21, 2-cyclopropylmethyl-6-(3-fluoro-4-methoxyphenyl)-4-(1-piperazinyl)methyl-2H-pyridazin-3-one dihydrochloride] | >20
Cc1ccc(-c2cc(CN(C)C)c(=O)n(CC(C)C)n2)cc1.Cl [Example 45, 4-dimethylaminomethyl-2-isobutyl-6-(4-methylphenyl)-2H-pyridazin-3-one hydrochloride] | 4
CCN(CC)Cc1cc(-c2ccc(C)cc2)nn(CC(C)C)c1=O.Cl [Example 47, 4-diethylaminomethyl-2-isobutyl-6-(4-methylphenyl)-2H-pyridazin-3-one hydrochloride] | >20
Cc1cc(-c2cc(CN(C)C)c(=O)n(CC(C)C)n2)ccc1F.Cl [Example 89, 4-dimethylaminomethyl-6-(4-fluoro-3-methylphenyl)-2-isobutyl-2H-pyridazin-3-one hydrochloride] | >20
COc1ccc(-c2cc(CN)c(=O)n(CC3CCCC3)n2)cc1F.Cl [Example 188, 4-aminomethyl-2-cyclopentylmethyl-6-(3-fluoro-4-methoxyphenyl)-2H-pyridazin-3-one hydrochloride] | 0.08
COc1ccc(-c2cc(CN)c(=O)n(Cc3ccc(F)cc3)n2)cc1F.Cl [Example 195, 4-aminomethyl-2-(4-fluorobenzyl)-6-(3-fluoro-4-methoxyphenyl)-2H-pyridazin-3-one hydrochloride] | 0.2
COc1ccc(-c2cc(CN)c(=O)n(Cc3ccc(Cl)cc3)n2)cc1F.Cl [Example 206, 4-aminomethyl-2-(4-chlorobenzyl)-6-(3-fluoro-4-methoxyphenyl)-2H-pyridazin-3-one hydrochloride] | 0.06
COc1ccc(-c2cc(CCCN3CCNCC3)c(=O)n(CC3CC3)n2)cc1F.Cl.Cl [Example 214, 2-cyclopropylmethyl-6-(3-fluoro-4-methoxyphenyl)-4-[3-(1-piperazinyl)propyl]-2H-pyridazin-3-one dihydrochloride] | 10
COc1ccc(-c2cc(CCCN)c(=O)n(CC3CC3)n2)cc1F.Cl [Example 217, 4-(3-aminopropyl)-2-cyclopropylmethyl-6-(3-fluoro-4-methoxyphenyl)-2H-pyridazin-3-one hydrochloride] | 10
